Laboratory results published in ChEMBL document CHEMBL4765228, “Indole-like Trk receptor antagonists” (Eur J Med Chem, 2016).

What was measured:
[1] = biological target: Calcium/calmodulin-dependent protein kinase type 1D (Homo sapiens) (UniProt Q8IU85); assay: Inhibition of human CAMK1D assessed as residual activity at 0.1 uM relative to control
[2] = biological target: Serine/threonine-protein kinase Chk2 (Homo sapiens) (UniProt O96017); assay: Inhibition of human CHK2 assessed as residual activity at 0.1 uM relative to control
Chain of Serine/threonine-protein kinase Chk2 (Homo sapiens) (O96017 whole entry): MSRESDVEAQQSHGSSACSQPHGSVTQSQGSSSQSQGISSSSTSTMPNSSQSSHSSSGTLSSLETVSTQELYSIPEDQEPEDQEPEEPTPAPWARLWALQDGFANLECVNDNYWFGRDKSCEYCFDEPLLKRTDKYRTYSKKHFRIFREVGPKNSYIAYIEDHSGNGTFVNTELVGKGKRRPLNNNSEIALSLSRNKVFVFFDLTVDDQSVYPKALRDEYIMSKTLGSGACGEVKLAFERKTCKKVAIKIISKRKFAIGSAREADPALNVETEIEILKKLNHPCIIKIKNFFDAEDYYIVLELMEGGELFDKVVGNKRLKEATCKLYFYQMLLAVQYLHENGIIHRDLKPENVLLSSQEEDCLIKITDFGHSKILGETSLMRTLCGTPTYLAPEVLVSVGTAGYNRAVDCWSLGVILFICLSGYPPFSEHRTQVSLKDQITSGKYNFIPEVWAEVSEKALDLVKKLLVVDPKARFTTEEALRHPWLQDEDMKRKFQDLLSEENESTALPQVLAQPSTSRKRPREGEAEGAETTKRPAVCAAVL

[3] = biological target: Dual specificity tyrosine-phosphorylation-regulated kinase 1A (Homo sapiens) (UniProt Q13627); assay: Inhibition of human DYRK1A assessed as residual activity at 1 uM relative to control
[4] = biological target: T1, Eukaryotic elongation factor 2 kinase (Homo sapiens) (UniProt O00418); assay: Inhibition of human EEF2K assessed as residual activity at 1 uM relative to control
T1 sequence (whole entry): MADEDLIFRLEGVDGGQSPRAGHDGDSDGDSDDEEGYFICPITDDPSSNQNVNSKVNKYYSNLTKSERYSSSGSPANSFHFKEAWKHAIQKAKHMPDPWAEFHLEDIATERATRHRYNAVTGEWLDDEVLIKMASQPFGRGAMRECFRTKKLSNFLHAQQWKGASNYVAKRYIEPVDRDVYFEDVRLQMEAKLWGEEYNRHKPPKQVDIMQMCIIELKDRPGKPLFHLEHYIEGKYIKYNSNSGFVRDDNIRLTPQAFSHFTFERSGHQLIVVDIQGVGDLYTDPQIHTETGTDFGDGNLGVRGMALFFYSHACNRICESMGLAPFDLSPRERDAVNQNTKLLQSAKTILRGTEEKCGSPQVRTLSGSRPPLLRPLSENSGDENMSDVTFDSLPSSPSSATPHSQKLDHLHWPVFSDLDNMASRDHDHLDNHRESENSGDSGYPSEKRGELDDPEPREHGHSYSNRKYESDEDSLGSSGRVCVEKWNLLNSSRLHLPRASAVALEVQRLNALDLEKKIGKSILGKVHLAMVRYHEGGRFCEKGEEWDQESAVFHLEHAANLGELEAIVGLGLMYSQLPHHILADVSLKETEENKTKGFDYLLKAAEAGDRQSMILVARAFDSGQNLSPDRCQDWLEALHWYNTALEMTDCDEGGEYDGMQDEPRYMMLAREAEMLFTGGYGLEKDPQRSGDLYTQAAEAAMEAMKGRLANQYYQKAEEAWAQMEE

[5] = biological target: T2, Interleukin-1 receptor-associated kinase 4 (Homo sapiens) (UniProt Q9NWZ3); assay: Inhibition of human untagged IRAK4 assessed as residual activity at 0.1 uM relative to control
T2 sequence (whole entry): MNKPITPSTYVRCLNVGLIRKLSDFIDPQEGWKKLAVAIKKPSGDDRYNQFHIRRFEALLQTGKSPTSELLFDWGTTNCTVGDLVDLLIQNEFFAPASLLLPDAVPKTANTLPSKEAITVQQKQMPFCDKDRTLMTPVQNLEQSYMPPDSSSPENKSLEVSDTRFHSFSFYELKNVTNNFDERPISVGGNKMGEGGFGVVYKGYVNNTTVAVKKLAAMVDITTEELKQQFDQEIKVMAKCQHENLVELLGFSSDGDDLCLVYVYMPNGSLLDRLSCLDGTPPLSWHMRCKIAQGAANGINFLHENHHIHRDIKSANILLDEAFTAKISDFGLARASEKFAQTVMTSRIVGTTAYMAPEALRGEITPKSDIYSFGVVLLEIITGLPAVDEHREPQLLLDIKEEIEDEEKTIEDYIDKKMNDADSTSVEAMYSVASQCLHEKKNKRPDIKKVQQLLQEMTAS

[6] = biological target: T2, Interleukin-1 receptor-associated kinase 4 (Homo sapiens); assay: Inhibition of human untagged IRAK4 assessed as residual activity at 1 uM relative to control
[7] = biological target: Tyrosine-protein kinase JAK2 (Homo sapiens) (UniProt O60674); assay: Inhibition of human JAK2 assessed as residual activity at 0.1 uM relative to control
Chain of Tyrosine-protein kinase JAK2 (Homo sapiens) (O60674 whole entry): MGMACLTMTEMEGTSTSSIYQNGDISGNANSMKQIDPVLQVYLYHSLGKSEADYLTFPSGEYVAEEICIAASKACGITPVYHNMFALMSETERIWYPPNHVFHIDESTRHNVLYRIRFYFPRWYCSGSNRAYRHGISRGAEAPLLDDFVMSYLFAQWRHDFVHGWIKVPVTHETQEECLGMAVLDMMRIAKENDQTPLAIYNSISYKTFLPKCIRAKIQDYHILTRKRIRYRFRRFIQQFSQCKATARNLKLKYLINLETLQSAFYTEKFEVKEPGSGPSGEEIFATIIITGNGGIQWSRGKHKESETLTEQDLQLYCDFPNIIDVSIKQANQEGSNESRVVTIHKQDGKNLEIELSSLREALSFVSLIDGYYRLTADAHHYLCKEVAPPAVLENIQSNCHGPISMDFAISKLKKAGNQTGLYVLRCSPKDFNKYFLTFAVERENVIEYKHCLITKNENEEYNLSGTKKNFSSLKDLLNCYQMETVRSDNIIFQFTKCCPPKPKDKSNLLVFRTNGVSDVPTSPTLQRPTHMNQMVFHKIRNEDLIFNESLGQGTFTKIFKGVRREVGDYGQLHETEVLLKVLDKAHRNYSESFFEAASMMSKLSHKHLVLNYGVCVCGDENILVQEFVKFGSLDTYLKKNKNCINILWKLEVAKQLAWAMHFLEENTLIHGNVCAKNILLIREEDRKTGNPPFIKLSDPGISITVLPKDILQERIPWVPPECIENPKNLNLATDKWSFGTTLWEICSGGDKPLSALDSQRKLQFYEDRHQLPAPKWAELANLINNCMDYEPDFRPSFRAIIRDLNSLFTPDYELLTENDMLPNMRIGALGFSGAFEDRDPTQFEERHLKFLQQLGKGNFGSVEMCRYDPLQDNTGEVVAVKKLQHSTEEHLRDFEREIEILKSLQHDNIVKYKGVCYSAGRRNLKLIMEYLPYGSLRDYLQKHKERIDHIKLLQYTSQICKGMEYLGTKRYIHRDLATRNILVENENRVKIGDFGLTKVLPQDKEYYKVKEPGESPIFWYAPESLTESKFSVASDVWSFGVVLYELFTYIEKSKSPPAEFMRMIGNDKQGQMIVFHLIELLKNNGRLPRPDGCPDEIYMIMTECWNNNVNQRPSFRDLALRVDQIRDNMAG

[8] = biological target: Tyrosine-protein kinase Lck (Homo sapiens) (UniProt P06239); assay: Inhibition of human LCK assessed as residual activity at 0.1 uM relative to control
Chain of Tyrosine-protein kinase Lck (Homo sapiens) (P06239 2-509 limits assumed): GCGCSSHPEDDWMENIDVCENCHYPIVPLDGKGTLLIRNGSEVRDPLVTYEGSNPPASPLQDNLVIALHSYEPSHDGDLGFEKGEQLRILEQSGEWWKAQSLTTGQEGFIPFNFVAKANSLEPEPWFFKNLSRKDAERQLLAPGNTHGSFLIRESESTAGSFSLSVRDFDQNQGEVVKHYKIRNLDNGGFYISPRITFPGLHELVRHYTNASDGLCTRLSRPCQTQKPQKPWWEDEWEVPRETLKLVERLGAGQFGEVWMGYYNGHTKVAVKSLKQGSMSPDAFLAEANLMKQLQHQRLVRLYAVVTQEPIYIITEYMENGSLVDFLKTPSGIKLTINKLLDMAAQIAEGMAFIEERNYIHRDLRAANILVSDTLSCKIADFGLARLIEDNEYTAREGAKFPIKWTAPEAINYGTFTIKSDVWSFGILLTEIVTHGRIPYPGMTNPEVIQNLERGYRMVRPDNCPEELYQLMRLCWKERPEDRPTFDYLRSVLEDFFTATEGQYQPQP

[9] = biological target: T3, Mitogen-activated protein kinase kinase kinase 7 (Homo sapiens) (UniProt O43318); assay: Inhibition of human MAP3K7 assessed as residual activity at 1 uM relative to control
T3 sequence (whole entry): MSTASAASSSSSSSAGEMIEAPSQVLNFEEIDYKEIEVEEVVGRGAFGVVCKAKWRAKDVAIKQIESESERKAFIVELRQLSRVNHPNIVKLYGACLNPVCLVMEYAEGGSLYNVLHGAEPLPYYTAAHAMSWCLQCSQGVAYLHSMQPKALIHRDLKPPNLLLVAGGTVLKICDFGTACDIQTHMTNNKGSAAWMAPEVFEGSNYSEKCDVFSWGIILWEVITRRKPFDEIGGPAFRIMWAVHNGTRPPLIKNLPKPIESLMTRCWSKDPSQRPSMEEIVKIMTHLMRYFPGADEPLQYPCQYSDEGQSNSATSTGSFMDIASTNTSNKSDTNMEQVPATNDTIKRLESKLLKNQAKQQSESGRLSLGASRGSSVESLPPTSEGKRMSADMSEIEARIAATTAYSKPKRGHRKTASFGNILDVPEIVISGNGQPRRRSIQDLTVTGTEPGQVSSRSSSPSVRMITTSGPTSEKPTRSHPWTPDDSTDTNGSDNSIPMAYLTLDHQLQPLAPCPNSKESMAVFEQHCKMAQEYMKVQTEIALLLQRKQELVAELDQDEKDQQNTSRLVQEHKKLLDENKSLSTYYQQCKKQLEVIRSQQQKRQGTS

[10] = biological target: T4, Serine/threonine-protein kinase 3 (Homo sapiens) (UniProt Q13188); assay: Inhibition of human MST2 assessed as residual activity at 0.1 uM relative to control
T4 sequence (whole entry): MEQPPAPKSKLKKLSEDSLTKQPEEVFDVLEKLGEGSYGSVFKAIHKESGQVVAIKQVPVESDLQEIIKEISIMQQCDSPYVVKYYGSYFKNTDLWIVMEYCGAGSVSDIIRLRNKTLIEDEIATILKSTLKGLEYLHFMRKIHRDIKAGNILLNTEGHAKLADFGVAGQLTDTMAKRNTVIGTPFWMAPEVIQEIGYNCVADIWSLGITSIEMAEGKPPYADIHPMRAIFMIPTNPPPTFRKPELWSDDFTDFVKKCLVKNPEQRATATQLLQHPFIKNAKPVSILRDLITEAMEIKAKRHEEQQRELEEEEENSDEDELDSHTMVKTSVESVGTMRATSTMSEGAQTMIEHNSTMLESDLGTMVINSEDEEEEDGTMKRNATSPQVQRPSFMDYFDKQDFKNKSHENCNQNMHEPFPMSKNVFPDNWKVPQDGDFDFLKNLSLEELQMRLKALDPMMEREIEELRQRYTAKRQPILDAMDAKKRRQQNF

[11] = biological target: Myosin light chain kinase, smooth muscle (Homo sapiens) (UniProt Q15746); assay: Inhibition of human MYLK assessed as residual activity at 1 uM relative to control
Chain of Myosin light chain kinase, smooth muscle (Homo sapiens) (Q15746 whole entry): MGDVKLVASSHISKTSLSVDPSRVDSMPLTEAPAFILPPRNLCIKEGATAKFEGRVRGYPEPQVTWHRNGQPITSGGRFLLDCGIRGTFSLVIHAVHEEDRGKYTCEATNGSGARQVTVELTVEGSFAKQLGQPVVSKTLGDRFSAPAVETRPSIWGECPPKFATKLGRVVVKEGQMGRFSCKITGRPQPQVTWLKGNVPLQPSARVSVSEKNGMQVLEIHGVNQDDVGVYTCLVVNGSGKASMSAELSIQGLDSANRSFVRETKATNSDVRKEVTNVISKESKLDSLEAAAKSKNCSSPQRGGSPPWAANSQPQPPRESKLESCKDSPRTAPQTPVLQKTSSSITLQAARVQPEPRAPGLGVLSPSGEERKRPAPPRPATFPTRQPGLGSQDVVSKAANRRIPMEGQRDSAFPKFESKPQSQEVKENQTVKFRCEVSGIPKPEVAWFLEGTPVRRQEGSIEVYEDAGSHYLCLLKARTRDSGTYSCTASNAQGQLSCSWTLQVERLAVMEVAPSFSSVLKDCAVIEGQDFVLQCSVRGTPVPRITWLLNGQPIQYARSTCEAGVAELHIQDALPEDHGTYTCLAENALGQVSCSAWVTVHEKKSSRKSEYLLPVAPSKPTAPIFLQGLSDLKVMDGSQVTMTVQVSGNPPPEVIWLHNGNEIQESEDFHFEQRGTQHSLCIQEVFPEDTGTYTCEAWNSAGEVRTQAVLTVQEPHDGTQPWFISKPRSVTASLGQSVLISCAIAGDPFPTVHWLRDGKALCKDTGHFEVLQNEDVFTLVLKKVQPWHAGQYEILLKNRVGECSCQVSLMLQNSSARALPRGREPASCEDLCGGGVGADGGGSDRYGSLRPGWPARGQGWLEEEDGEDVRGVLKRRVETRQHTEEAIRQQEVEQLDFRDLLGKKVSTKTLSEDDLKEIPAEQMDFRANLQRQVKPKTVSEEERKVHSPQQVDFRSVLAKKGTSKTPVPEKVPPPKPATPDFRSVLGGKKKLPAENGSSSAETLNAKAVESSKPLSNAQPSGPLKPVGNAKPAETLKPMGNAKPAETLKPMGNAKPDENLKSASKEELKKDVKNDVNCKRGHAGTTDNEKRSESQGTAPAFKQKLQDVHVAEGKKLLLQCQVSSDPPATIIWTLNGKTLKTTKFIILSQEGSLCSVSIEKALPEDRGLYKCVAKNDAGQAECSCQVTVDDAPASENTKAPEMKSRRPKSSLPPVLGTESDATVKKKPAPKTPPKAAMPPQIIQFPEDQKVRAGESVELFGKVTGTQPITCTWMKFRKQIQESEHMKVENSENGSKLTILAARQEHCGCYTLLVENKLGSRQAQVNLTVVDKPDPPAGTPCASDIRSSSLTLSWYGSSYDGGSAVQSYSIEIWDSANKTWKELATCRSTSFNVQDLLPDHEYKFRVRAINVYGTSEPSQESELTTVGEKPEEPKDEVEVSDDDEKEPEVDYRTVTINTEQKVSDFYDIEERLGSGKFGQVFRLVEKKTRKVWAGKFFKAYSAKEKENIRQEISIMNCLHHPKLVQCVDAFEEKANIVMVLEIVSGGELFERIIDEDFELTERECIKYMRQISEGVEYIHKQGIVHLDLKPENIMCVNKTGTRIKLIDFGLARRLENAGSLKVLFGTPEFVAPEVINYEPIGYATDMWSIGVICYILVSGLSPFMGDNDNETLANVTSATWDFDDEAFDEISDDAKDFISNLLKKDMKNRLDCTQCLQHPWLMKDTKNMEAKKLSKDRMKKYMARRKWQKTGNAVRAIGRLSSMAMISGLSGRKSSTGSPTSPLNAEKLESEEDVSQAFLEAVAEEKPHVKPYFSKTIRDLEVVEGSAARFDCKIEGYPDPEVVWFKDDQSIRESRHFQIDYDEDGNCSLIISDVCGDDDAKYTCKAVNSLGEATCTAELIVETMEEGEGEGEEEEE

[12] = biological target: Serine/threonine-protein kinase PAK 4 (Homo sapiens) (UniProt O96013); assay: Inhibition of human PAK4 assessed as residual activity at 0.1 uM relative to control
Chain of Serine/threonine-protein kinase PAK 4 (Homo sapiens) (O96013 whole entry, looked up): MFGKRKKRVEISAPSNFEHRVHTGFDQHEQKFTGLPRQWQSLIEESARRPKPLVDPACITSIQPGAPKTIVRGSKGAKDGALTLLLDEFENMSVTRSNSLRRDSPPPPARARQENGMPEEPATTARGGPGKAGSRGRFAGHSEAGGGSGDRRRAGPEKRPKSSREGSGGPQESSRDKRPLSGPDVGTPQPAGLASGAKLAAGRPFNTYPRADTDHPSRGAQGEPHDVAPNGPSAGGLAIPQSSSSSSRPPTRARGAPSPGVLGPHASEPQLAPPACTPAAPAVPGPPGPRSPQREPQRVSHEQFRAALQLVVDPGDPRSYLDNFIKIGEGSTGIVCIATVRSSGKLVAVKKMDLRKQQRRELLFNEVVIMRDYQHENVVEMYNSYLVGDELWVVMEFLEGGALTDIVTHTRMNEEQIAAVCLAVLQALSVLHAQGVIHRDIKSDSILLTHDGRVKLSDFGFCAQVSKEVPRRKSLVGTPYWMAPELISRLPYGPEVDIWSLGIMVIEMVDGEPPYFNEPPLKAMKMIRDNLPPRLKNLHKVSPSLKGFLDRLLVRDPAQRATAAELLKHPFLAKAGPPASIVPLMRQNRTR

Chain of Calcium/calmodulin-dependent protein kinase type 1D (Homo sapiens) (Q8IU85 whole entry, looked up): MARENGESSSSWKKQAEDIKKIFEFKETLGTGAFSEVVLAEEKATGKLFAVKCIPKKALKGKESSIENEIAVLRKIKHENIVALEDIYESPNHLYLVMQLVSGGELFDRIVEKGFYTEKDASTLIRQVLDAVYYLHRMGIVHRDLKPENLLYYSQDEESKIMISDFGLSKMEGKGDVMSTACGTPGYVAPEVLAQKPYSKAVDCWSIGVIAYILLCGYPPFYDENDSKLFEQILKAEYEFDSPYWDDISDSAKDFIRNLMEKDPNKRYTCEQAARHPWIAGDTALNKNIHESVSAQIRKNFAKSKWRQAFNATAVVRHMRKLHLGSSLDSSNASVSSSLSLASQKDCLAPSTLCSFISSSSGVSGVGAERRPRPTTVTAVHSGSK

| Activity [1] | Activity [2] | Activity [3] | Activity [4] | Activity [5] | Activity [6] | Activity [7] | Activity [8] | Activity [9] | Activity [10] | Activity [11] | Activity [12] | Compound |
| --- | --- | --- | --- | --- | --- | --- | --- | --- | --- | --- | --- | --- |
| 84% | 35% | 99% | 102% | 12% | 20% | 90% | 65% | 89% | 86% | 90% | 77% | COc1ccc2c(c1)c(/C=C1\C(=O)Nc3ccc(S(N)(=O)=O)cc31)cn2C |
| 90% | 93% | 95% | 92% | 59% | 37% | 89% | 45% | 95% | 95% | 90% | 84% | CNS(=O)(=O)c1ccc2c(c1)/C(=C/c1cn(C)c3ccc(OC)cc13)C(=O)N2 |
| 99% | 100% | 94% | 86% | 91% | 83% | 88% | 81% | 88% | 101% | 91% | 96% | COc1ccc2c(c1)c(/C=C1\C(=O)Nc3ccc(S(=O)(=O)N(C)C)cc31)cn2C |

The next lines start with the compound.

| Compound | Activity [1] | Activity [2] | Activity [3] | Activity [4] | Activity [5] | Activity [6] | Activity [7] | Activity [8] | Activity [9] | Activity [10] | Activity [11] | Activity [12] |
| --- | --- | --- | --- | --- | --- | --- | --- | --- | --- | --- | --- | --- |
| CN(C)S(=O)(=O)c1ccc2c(c1)/C(=C/c1cn(C)c3ccc(O)cc13)C(=O)N2 | 100% | 94% | 101% | 106% | 68% | 52% | 78% | 62% | 92% | 98% | 84% | 95% |
| COc1ccc2[nH]cc(/C=C3\C(=O)Nc4ccc(S(N)(=O)=O)cc43)c2c1 | 97% | 59% | 96% | 112% | 45% | 9% | 91% | 72% | 64% | 101% | 83% | 93% |
| Cn1cc(/C=C2\C(=O)Nc3ccc(S(N)(=O)=O)cc32)c2ccccc21 | 106% | 9% | 114% | 103% | 6% | 3% | 85% | 64% | 63% | 91% | 90% | 74% |
